Where a name gives a salt, the structure may show the parent alone.
What was measured:
esterase = test: Pro-drug DTNB assay after incubation with esterase; format: biochemical, porcine; conditions: for dependence of activation on amount of esterase: varying amounts of esterase
Description: (§1) This assay was designed to determine whether prodrug caps added on to our dithiol mucolytic compounds can be cleaved from the molecule. If so, the outcome would be an “active” compound that is able to reduce the S—S bond in DTNB. When cleaved the resulting compound, NTB (2-nitro-5-thiobenzoate), is a colored product that can be measured spectrophotometrically at an absorbance of 412 nm (Abs412). Using the molar extinction coefficient of NTB and measured maximum Abs412, the molar amount of DTNB that reacted with our mucolytic agents can be calculated. Dithiol mucolytic compounds react at a 2:1 stoichiometric ratio with DTNB (i.e. 2 molecules of NTB are produced for every one molecule of a dithiol compound that is oxidized). Dithiol prodrugs were mixed at a final concentration of 22.5 μM with excess DTNB (100 μM final) in 1 mL 50 mM Tris-HCl buffer (pH 7.5) and maximum Abs412 was measured. In the absence of a purified hydrolytic enzyme (e.g. porcine liver esterase; Sigma), the amount of DTNB cleavage observed is an indicator for stability of the cap on the prodrug compound (i.e. if the prodrug remains intact in solution the Abs412=0). Next, 5 uL of esterase (bought as an ammonium sulfate suspension that is subsequently centrifuged to isolate the esterase and then dissolved in reaction buffer prior to assaying) is combined with excess DTNB (100 μM final) and 22.5 μM pro-drug in 1 mL 50 mM Tris-HCl buffer (pH 7.5). Cleavage of the prodrug cap can be visualized in real time via DTNB cleavage at Abs412 by the esterase-liberated dithiol molecule.

Muc5B [1] = biological target: T1, Muc5B (Homo sapiens, UniProt Q9HC84); test: MUC5B reduction in human mucus samples; format: biochemical
T1 construct: 68, 70a/b and 76 all reduce MUC5B in human mucus samples; from tissue; host or cells: human mucus samples
Description: (§2) This assay tests whether mucin has been reduced by mucolytic compounds. Various mucin-containing substrates (e.g. saliva, primary human bronchial epithelial (HBEs) cell mucus (either on cultures or harvested), and sputum) treated with our dithiol mucolytic compounds are quenched upon completion of the treatment period with a 10-fold excess of N-ethylmaleimide in order to alkylate any remaining active compound and to prevent further mucin reduction. A 10× concentrated sample loading buffer is diluted into each sample (lx TAE/5% glycerol/0.1% SDS/Bromophenol Blue). Samples (50 μg) were analyzed by electrophoresis on 0.9% agarose gels using a buffer system consisting of 1×TAE/0.1% SDS. The agarose gel was soaked for 15 min in 4×SSC (0.6 M NaCl, 60 mM Tri-sodium citrate dehydrate) containing 10 mM DTT before transferring the samples from the gel onto a nitrocellulose membrane by vacuum blotter. Unreduced and reduced Muc5B and Muc5AC were visualized on a LiCor Odyssey imaging detection system using a polyclonal antibody directed towards Muc5B.

[2] = Pro-drug DTNB assay without enzyme (reducing activity); format: biochemical; conditions: for reducing activity in DTNB assay without enzyme: no esterase added
Description: as §1

[3] = tested on: human bronchial epithelial cells (HBE); test: HBE ADME assay; format: in vitro ADME; conditions: four hours post-dose
Experimental: This assay was designed to determine if our dithiol prodrug compounds would be retained on the apical surface of human bronchial epithelial cells (HBE) (i.e. they are predominately cell impermeant) and if the compounds could be metabolized to their active forms (i.e. are there relevant hydrolytic enzymes present). Towards this goal, 15 μL of 10 mM dithiol prodrug compound was added to the apical surface of HBEs. At indicated time points, mucus from the apical surface was isolated with a PBS wash that contained 10-fold excess of N-ethylmaleimide in order to alkylate any remaining active compound and to prevent further mucin reduction. In addition the HBE cells and basolateral media were isolated at each time point. The form (e.g., prodrug, active metabolite, oxidized metabolite) and location (apical, cellular, basolateral media) of each compound was analyzed by LC-MS.

human aminopeptidase = test: DTNB assay after incubation with human aminopeptidase; format: biochemical; conditions: over an hour incubation, two concentrations of human aminopeptidase
Muc5AC = biological target: T2, Muc5AC (Homo sapiens, UniProt P98088); test: Western blot analysis of HBE mucus, Muc5AC; format: cell-based; conditions: single treatment, 10 mM
T2 construct: endogenous in cells; host or cells: primary human bronchial epithelial (HBE) cultures
Description: as §2

Muc5B [4] = biological target: T1, Muc5B; test: Western blot analysis of HBE mucus, Muc5B; format: cell-based; conditions: single treatment, 10 mM
Description: as §2

[5] = Stability of capped and uncapped compounds tested with DTNB; format: physicochemical; conditions: 4 days at room temperature; tested before and after incubation with esterase
Description: This assay was designed to determine whether prodrug caps added on to our dithiol mucolytic compounds can be cleaved from the molecule. If so, the outcome would be an “active” compound that is able to reduce the S—S bond in DTNB. When cleaved the resulting compound, NTB (2-nitro-5-thiobenzoate), is a colored product that can be measured spectrophotometrically at an absorbance of 412 nm (Abs412). Using the molar extinction coefficient of NTB and measured maximum Abs412, the molar amount of DTNB that reacted with our mucolytic agents can be calculated. Dithiol mucolytic compounds react at a 2:1 stoichiometric ratio with DTNB (i.e. 2 molecules of NTB are produced for every one molecule of a dithiol compound that is oxidized). Dithiol prodrugs were mixed at a final concentration of 22.5 μM with excess DTNB (100 μM final) in 1 mL 50 mM Tris-HCl buffer (pH 7.5) and maximum Abs412 was measured. In the absence of a purified hydrolytic enzyme (e.g. porcine liver esterase; Sigma), the amount of DTNB cleavage observed is an indicator for stability of the cap on the prodrug compound (i.e. if the prodrug remains intact in solution the Abs412=0). […]

[6] = Elimination of inhaled 14C-labeled NAC from the lungs in animal studies; format: in vivo; conditions: inhaled or intranasal, administered by inhalation, animal studies (unpublished observation)

With `CC(=O)SCc1ccc(OCCN(C[C@@H](O)[C@@H](O)[C@H](O)[C@H](O)CO)C[C@@H](O)[C@@H](O)[C@H](O)[C@H](O)CO)cc1CSC(C)=O` [Compound 68, S,S′-((4-(2-(bis((2R,3R,4R,5R)-2,3,4,5,6-pentahydroxyhexyl)amino)ethoxy)-1,2-phenylene)bis(methylene)) diethanethioate hydrochloride] the “dependence of activation on amount of esterase” value (from here on “dependence of activation”) (esterase) was “concentration dependent increase in reaction rates”, the “reduction of MUC5B in human mucus samples” value (Muc5B [1]) was “reduce MUC5B” and the “reducing activity in DTNB assay without enzyme” value [2] was “does not reduce the disulfide bonds”. The “metabolism and oxidation on the apical surface of HBE cultures” value [3] was “substantially metabolized and oxidized” and the “retention on the apical cell surface of HBE cultures” value [3] was “substantially maintained on the apical cell surface”.

With `NCCCC[C@H](N)C(=O)SCc1ccccc1CSC(=O)[C@@H](N)CCCCN` [Compound 35, (2S,2′S)—S,S′-(1,2-phenylenebis(methylene)) bis(2,6-diaminohexanethioate)HCl salt] the “activation by aminopeptidase in DTNB assay” value (human aminopeptidase) was “does not completely activate the compound”.

With `CC(=O)SCc1ccc(OCCN(C[C@H](O)[C@@H](O)[C@H](O)[C@H](O)CO)C[C@H](O)[C@@H](O)[C@H](O)[C@H](O)CO)cc1CSC(C)=O` [Compound 23, S,S′-((4-(2-(bis((2S,3R,4R,5R)-2,3,4,5,6-pentahydroxyhexyl)amino)ethoxy)-1,2-phenylene)bis(methylene)) diethanethioate] the “reduction of Muc5AC on the apical surface of HBE cultures” value (Muc5AC) was “reduced”, the “dependence of activation” value (esterase) was “Increasing amounts of esterase increased activation” and the “reduction of Muc5B on the apical surface of HBE cultures” value (Muc5B [4]) was “reduced”. For the same compound, the “stability against oxidation tested with DTNB” value [5] was “prevents some but not all oxidation”.

With `CC(=O)N[C@@H](CS)C(=O)O` [NAC, N-acetyl cysteine] the half-life [6] was about 20 min.

With `CC(=O)SCc1cc(OCCNC(=O)[C@@H](N)CCCCN)c(OCCNC(=O)[C@@H](N)CCCCN)cc1CSC(C)=O` [Compound 11, S,S′-((4,5-bis(2-((S)-2,6-diaminohexanamido)ethoxy)-1,2-phenylene)bis(methylene)) diethanethioate hydrochloride] the “activation by esterase in DTNB assay” value (esterase; low and high concentration of esterase, approximately 15 min incubation) was “activated compound 11 to a similar level as compound 41” and the “reducing activity in DTNB assay without enzyme” value [2] was “remained inactive”.

With `CC(=O)SCc1ccccc1CSC(C)=O` [Compound 13, S,S′-(1,2-phenylenebis(methylene)) diethanethioate] the “amount of esterase giving full activation” value (esterase; DTNB assay) was at least 0.015 units, the “activation by esterase in DTNB assay” value (esterase; high concentration of esterase) was “fully activated immediately” and the “activation by esterase in DTNB assay” value (esterase; low concentration of esterase, 15 min incubation) was “near fully activated”. For the same compound, the “dependence of activation” value (esterase) was “Increasing amounts of esterase correlated with increasing activation”.

With `Cl.OC[C@@H](O)[C@@H](O)[C@H](O)[C@H](O)CN(CCOc1ccc(CS)c(CS)c1)C[C@@H](O)[C@@H](O)[C@H](O)[C@H](O)CO` [Compound 76, (2R,2′R,3R,3′R,4R,4′R,5R,5′R)-6,6′-((2-(3,4-bis(mercaptomethyl)phenoxy)ethyl)azanediyl)bis(hexane-1,2,3,4,5-pentaol) hydrochloride] the “reduction of MUC5B in human mucus samples” value (Muc5B [1]) was “reduce MUC5B” and the “time to fully reduce all available disulfides” value ([2]; no enzyme) was under 10 s.

With “S-4-(2-(bis((2R,3R,4R,5R)-2,3,4,5,6-pentahydroxyhexyl)amino)ethoxy)-2-(mercaptomethyl)benzyl ethanethioate hydrochloride and S-5-(2-(bis((2R,3R,4R,5R)-2,3,4,5,6-pentahydroxyhexyl)amino)ethoxy)-2-(mercaptomethyl)benzyl ethanethioate hydrochloride [70a/b]” the “reduction of MUC5B in human mucus samples” value (Muc5B [1]) was “reduce MUC5B”.

Source: patent US10526283B2, “Prodrugs of dithiol mucolytic agents” (PARION SCIENCES, INC., priority 2015, dated 2020)
